{
  "source": "paper PMC10106510",
  "about": "(European Journal of Medicinal Chemistry, 2023)",
  "key": {"CYP3A4": {"target": "CYP3A4 (Homo sapiens, UniProt P08684)", "sequence (P08684 whole entry)": "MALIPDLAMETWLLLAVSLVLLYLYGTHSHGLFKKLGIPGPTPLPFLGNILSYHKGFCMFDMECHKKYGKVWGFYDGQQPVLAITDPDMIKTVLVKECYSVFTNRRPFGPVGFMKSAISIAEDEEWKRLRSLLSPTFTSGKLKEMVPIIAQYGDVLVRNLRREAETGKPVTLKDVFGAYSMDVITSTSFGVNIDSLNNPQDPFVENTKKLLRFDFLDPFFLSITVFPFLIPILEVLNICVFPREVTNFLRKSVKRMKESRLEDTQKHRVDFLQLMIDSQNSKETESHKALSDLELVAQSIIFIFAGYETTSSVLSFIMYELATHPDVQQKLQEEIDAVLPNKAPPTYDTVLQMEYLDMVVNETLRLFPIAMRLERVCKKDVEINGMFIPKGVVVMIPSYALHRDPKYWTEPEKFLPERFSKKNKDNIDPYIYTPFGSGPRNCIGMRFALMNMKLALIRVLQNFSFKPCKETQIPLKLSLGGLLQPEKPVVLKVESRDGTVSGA"}, "SARS-CoV-2 PLpro [1]": {"target": "T1, SARS-CoV-2 PLpro (Severe acute respiratory syndrome coronavirus 2, UniProt P0DTD1)", "conditions": "cited from earlier work"}, "MERS-CoV PLpro": {"tested_on": "MERS-CoV PLpro", "conditions": "cited from earlier work"}, "SARS-CoV-2 PLpro [2]": {"target": "T1, SARS-CoV-2 PLpro", "test": "Papain-like protease", "conditions": "variable results in dose-dependent study, IC50 not determined"}, "[3]": {"tested_on": "SARS-CoV-2 RNA (ORF1b, Spike) in infected Caco-2 cells", "assay_type": "cell-based"}, "[4]": {"tested_on": "SARS-CoV-2 infected Caco-2 cells (IFN-α, IL-6, OAS1 mRNA)", "assay_type": "cell-based, Human", "conditions": "20 μg/mL"}, "Balb/c mice [5]": {"tested_on": "Balb/c mice", "conditions": "25, 50, and 100 mg/kg, intraperitoneal"}, "Balb/c mice [6]": {"tested_on": "Balb/c mice"}},
  "data": [
    {"smiles": "CC1(C)[C@H]2COc3ccc4ccccc4c3[C@H]2N=C2SC=C(c3ccc(S(=O)(=O)N4CCOCC4)cc3)N21", "note": "[SIMR1493]", "values": [
      {"measurement": "CYP3A4 IC50", "setting": "CYP3A4", "result": 134, "unit": "µM"}
    ]},
    {"smiles": "Cc1ccc(N)cc1C(=O)N[C@H](C)c1cccc2ccccc12", "note": "[GRL0617]", "values": [
      {"measurement": "inhibitory activity in a cell-based assay", "setting": "SARS-CoV-2 PLpro [1]", "result": "moderate to weak"},
      {"measurement": "activity against MERS-CoV PLpro", "setting": "MERS-CoV PLpro", "result": "inactivity"}
    ]},
    {"smiles": "COC(=O)C[C@@H]1COc2ccccc2[C@H](C(=O)NC(C)(C)C)N(CCc2c[nH]c3ccc(OC)cc23)C(=O)[C@@H]1c1nnc(-c2cccc(C(F)(F)F)c2)o1", "note": "[SIMR2304]", "values": [
      {"measurement": "PLpro inhibitory activity, initial screening", "setting": "SARS-CoV-2 PLpro [2]", "result": "very strong inhibitory activity"}
    ]},
    {"smiles": "COc1ccc2[nH]c3c(c2c1)C[C@]1(OC)CC[C@H]2c4[nH]c5ccccc5c4CCN2[C@@H]1C3", "note": "[SIMR3030]", "values": [
      {"measurement": "Spike RNA inhibition", "setting": "[3]; 20 μg/mL, 1, 6 and 12 h", "result": "observed only after 6 and 12 h"},
      {"measurement": "viral ORFb1 RNA inhibition", "setting": "[3]; 20 μg/mL, at 1, 6 and 12 h", "result": "more than 70%"},
      {"measurement": "IL-6 mRNA expression", "setting": "[4]; at 1, 3 and 12 h", "result": "significantly reduced"},
      {"measurement": "OAS1 mRNA expression", "setting": "[4]; at 1, 3 and 12 h", "result": "significantly reduced"},
      {"measurement": "IFN-α mRNA expression", "setting": "[4]; at 1 and 3 h", "result": "significantly reduced"},
      {"measurement": "signs of toxicity or body weight loss, single dose", "setting": "Balb/c mice [5]", "result": "no signs of toxicity or body weight loss"},
      {"measurement": "platelet population", "setting": "Balb/c mice [6]; 25 mg/kg multiple dose, hematological analysis", "result": "slight reduction"},
      {"measurement": "signs of toxicity or weight loss, multiple dose", "setting": "Balb/c mice [6]; 12.5 and 25 mg/kg, intraperitoneal, daily for 14 days", "result": "no signs of toxicity or weight loss"},
      {"measurement": "microscopic investigation of organs (liver, spleen, kidneys, heart, lungs)", "setting": "Balb/c mice [6]; H&E staining, 12.5 and 25 mg/kg multiple dose", "result": "no histologic variations and no signs of toxic injury"}
    ]}
  ]
}
